From patent US20090118332A1, “Therapeutic Agents - 551” (AstraZeneca AB, priority 2006, published 2009) come the findings set out here.

Molecules are shown by their SMILES.

In the first test the target is T1, human Fatty Acid Synthase (Homo sapiens, UniProt P49327).
T1 construct: made in house
T1 sequence (P49327 whole entry): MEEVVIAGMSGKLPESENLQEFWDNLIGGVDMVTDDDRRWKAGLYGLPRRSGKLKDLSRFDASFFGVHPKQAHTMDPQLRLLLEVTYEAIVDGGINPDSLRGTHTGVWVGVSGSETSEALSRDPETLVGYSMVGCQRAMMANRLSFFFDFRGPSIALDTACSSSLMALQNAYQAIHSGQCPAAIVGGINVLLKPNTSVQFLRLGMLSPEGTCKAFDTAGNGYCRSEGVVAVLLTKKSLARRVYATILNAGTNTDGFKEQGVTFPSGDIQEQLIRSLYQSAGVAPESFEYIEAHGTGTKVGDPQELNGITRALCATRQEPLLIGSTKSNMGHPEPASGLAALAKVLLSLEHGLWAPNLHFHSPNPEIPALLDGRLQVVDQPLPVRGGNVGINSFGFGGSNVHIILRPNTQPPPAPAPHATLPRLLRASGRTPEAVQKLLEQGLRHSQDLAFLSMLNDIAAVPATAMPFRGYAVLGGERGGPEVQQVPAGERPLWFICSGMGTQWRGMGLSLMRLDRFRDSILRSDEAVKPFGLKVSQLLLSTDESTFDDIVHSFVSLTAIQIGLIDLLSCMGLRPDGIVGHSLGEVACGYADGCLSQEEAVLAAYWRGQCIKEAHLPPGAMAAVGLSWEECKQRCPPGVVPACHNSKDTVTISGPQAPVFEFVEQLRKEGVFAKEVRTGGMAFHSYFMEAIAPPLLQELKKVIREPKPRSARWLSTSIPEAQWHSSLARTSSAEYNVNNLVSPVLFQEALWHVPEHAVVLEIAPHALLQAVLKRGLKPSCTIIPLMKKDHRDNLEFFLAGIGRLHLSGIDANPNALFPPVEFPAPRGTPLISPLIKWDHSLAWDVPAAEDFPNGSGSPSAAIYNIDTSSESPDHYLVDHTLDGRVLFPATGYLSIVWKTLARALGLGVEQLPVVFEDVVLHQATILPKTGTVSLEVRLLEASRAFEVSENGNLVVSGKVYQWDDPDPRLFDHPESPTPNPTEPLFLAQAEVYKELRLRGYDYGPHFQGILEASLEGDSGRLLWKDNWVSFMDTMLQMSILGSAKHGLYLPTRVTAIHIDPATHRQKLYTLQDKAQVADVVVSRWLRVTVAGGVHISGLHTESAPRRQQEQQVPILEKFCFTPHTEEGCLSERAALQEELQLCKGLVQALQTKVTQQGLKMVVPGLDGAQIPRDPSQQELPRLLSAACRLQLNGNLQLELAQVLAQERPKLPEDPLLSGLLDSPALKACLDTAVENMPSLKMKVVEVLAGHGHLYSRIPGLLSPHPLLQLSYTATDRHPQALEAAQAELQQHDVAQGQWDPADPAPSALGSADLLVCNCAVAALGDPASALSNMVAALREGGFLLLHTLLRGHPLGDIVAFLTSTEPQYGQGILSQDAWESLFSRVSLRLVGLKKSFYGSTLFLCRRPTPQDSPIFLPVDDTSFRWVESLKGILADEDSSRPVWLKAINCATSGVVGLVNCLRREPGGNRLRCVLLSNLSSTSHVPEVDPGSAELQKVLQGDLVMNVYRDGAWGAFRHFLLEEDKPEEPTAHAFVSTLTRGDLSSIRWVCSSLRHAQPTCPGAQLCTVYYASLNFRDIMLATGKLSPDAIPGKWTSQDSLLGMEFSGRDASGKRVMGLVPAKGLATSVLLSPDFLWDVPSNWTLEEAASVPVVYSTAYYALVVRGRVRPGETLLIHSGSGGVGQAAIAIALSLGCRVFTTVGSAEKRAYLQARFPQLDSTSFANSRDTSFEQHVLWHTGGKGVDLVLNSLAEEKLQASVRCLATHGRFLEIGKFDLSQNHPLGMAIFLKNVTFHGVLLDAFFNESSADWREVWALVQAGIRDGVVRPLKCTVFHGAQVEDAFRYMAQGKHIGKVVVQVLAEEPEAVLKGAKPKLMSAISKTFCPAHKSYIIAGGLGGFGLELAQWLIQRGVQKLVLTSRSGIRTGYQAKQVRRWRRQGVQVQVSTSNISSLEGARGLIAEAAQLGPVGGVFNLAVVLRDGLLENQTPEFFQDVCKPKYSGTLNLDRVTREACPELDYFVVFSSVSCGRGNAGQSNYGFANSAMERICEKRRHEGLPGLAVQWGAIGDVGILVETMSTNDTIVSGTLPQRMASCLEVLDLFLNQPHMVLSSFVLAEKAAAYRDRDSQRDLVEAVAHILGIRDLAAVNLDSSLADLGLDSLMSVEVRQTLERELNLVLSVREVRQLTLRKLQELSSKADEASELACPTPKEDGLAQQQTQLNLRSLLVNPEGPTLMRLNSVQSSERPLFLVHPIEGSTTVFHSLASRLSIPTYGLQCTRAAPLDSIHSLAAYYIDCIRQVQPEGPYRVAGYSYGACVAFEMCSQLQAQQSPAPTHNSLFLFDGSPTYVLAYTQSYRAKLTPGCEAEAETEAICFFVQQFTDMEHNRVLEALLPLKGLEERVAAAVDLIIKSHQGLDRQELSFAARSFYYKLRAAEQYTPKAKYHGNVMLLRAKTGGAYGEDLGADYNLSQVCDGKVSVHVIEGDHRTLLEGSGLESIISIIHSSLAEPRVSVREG
Kind of test: Human FAS enzyme assay (decrease in NADPH fluorescence). Type of test: biochemical. The note with it: % inhibition at a concentration of 100 μmolar. The essentials:
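In-house human FAS was preincubated with compound and NADPH for 15 min at room temperature in 0.1 M Tris pH 7.5 with EDTA, glutathione and BSA. Malonyl CoA and acetyl CoA (500 μM and 150 μM in the added mix) were then added for 60 min. IC50 came from time-zero-subtracted NADPH fluorescence (340/460 nm).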
Turning to `Cc1ccc(C(=O)N2CCC(c3ccc(C#N)cc3)CC2)cc1NC(=O)NCCNC(=O)OCc1ccccc1` [Example 81, Benzyl N-[2-[[5-[4-(4-cyanophenyl)piperidine-1-carbonyl]-2-methyl-phenyl]carbamoylamino]ethyl]carbamate], the inhibition (usually the relative decrease from the control value, in per cent) at 100 µM was 88.2%.
For the molecule `Cc1ccc(C(=O)N2CCC(c3ccc(C#N)cc3)CC2)cc1NC(=O)NC1CC1` [Example 225, 1-[5-[4-(4-cyanophenyl)piperidine-1-carbonyl]-2-methyl-phenyl]-3-cyclopropyl-urea], the inhibition at 100 µM came out at 89.9%.
Turning to `N#Cc1ccc(C2CCN(C(=O)c3ccc(OC(F)(F)F)c(NC(=O)NCc4ccccc4)c3)CC2)cc1` [Example 5, 3-benzyl-1-[5-[4-(4-cyanophenyl)piperidine-1-carbonyl]-2-(trifluoromethoxy)phenyl]urea], the inhibition at 100 µM was 78.8%.
As for `Cc1ccc(C(=O)N2CCC(c3ccc(C#N)cc3)CC2)cc1NC(=O)NCCO` [Example 90, 1-[5-[4-(4-cyanophenyl)piperidine-1-carbonyl]-2-methyl-phenyl]-3-(2-hydroxyethyl)urea], the inhibition at 100 µM turned out to be 93.6%.
Still for that read-out and setting: as for `Cc1ccc(NC(=O)N[C@H]2CC[C@@H](O)CC2)cc1C(=O)N1CCC(c2ccc(C#N)cc2)CC1` [Example 48, 1-[3-[4-(4-cyanophenyl)piperidine-1-carbonyl]-4-methyl-phenyl]-3-cis-(4-hydroxycyclohexyl)urea], the figure is 93.7%; as for `Cc1cc(C)c(C(=O)N2CCC(c3ccc(C#N)cc3)CC2)cc1NC(=O)NCCCS(C)(=O)=O` [Example 294, 1-[5-[4-(4-cyanophenyl)piperidine-1-carbonyl]-2,4-dimethyl-phenyl]-3-(3-methylsulfonylpropyl)urea], 92.2%.
In the case of `CCC(C)NC(=O)Nc1cc(C(=O)N2CCC(c3ccc(C#N)cc3)CC2)ccc1C` (centres unmarked) [Example 226, 1-butan-2-yl-3-[5-[4-(4-cyanophenyl)piperidine-1-carbonyl]-2-methyl-phenyl]urea], the inhibition at 100 µM was 84.2%.
As to `Cc1ccc(C(=O)N2CCC(c3ccc(C#N)cc3)CC2)cc1NC(=O)NCCCN(CCO)CCO` [Example 141, 3-[3-(bis(2-hydroxyethyl)amino)propyl]-1-[5-[4-(4-cyanophenyl)piperidine-1-carbonyl]-2-methyl-phenyl]urea], the inhibition at 100 µM is 82.1%.
Same read-out and setting: as for `Cc1ccc(NC(=O)N[C@@H](C)c2ccccc2)cc1C(=O)N1CCC(c2ccc(C#N)cc2)CC1` [Example 38, 3-[3-[4-(4-cyanophenyl)piperidine-1-carbonyl]-4-methyl-phenyl]-1-[(1S)-1-phenylethyl]urea], the figure is 76.6%; as for `Cc1ccc(C(=O)N2CCC(c3ccc(C#N)cc3)CC2)cc1NC(=O)N[C@@H](CCS(C)(=O)=O)C(=O)O` [Example 240, (2S)-2-[[5-[4-(4-cyanophenyl)piperidine-1-carbonyl]-2-methyl-phenyl]carbamoylamino]-4-methylsulfonyl-butanoic acid], 99.3%.
On to `COc1ccc(C(=O)N2CCC(c3ccc(C#N)cc3)CC2)cc1NC(=O)NCc1ccccc1` [Example 9, 3-benzyl-1-[5-[4-(4-cyanophenyl)piperidine-1-carbonyl]-2-methoxy-phenyl]urea], for which the inhibition at 100 µM came to 70.4%.
Consider `Cc1ccc(C(=O)N2CCC(c3ccc(C#N)cc3)CC2)cc1NC(=O)NCCCO` [Example 191, 1-[5-[4-(4-cyanophenyl)piperidine-1-carbonyl]-2-methyl-phenyl]-3-(3-hydroxypropyl)urea], for which the inhibition at 100 µM was 92.2%.
For `CC(=O)NCCNC(=O)Nc1cc(C(=O)N2CCC(c3ccc(F)cc3)CC2)ccc1C` [Example 338, N-[2-[[5-[4-(4-fluorophenyl)piperidine-1-carbonyl]-2-methyl-phenyl]carbamoylamino]ethyl]acetamide], the inhibition at 100 µM worked out at 81.3%.
Take `COC(C)(C)CNC(=O)Nc1cc(C(=O)N2CCC(c3ccc(C#N)cc3)CC2)ccc1C` [Example 159, 1-[5-[4-(4-cyanophenyl)piperidine-1-carbonyl]-2-methyl-phenyl]-3-(2-methoxy-2-methyl-propyl)urea]: the inhibition at 100 µM was 88%.
Turning to `Cc1ccc(C(=O)N2CCC(c3ccc(C#N)cc3)CC2)cc1NC(=O)NC1CCCN(C(=O)OC(C)(C)C)C1` (centres unmarked) [Example 279, tert-butyl 3-[[5-[4-(4-cyanophenyl)piperidine-1-carbonyl]-2-methyl-phenyl]carbamoylamino]piperidine-1-carboxylate], the inhibition at 100 µM amounted to 99.4%.
In the case of `Cc1ccc(C(=O)N2CCC(c3ccc(C#N)cc3)CC2)cc1NC(=O)N[C@@H](COC(C)(C)C)C(N)=O` [Example 78, (2S)-2-[[5-[4-(4-cyanophenyl)piperidine-1-carbonyl]-2-methyl-phenyl]carbamoylamino]-3-[(2-methylpropan-2-yl)oxy]propanamide], the inhibition at 100 µM is 85.7%.
Take `CC(=O)NCC(C)NC(=O)Nc1cc(C(=O)N2CCC(c3ccc(C#N)cc3)CC2)ccc1C` (centres unmarked) [Example 232, N-[2-[[5-[4-(4-cyanophenyl)piperidine-1-carbonyl]-2-methyl-phenyl]carbamoylamino]propyl]acetamide]: the inhibition at 100 µM turned out to be 94.2%.
For `CCS(=O)(=O)N1CCCC(NC(=O)Nc2cc(C(=O)N3CCC(c4ccc(C#N)cc4)CC3)ccc2C)C1` (centres unmarked) [Example 297, 3-[5-[4-(4-cyanophenyl)piperidine-1-carbonyl]-2-methyl-phenyl]-1-(1-ethylsulfonyl-3-piperidyl)urea], the inhibition at 100 µM was found to be 97.9%.
In the case of `COC(=O)C1CCC(NC(=O)Nc2cc(C(=O)N3CCC(c4ccc(C#N)cc4)CC3)ccc2C)CC1` (centres unmarked) [Example 181, Methyl 4-[[5-[4-(4-cyanophenyl)piperidine-1-carbonyl]-2-methyl-phenyl]carbamoylamino]cyclohexane-1-carboxylate], the inhibition at 100 µM was 93.1%.
Still for that read-out and setting: to `Cc1ccc(C(=O)N2CCC(c3ccc(C#N)cc3)CC2)cc1NC(=O)NCCNC(=O)CC(=O)N(C)C` [Example 231, N-[2-[[5-[4-(4-cyanophenyl)piperidine-1-carbonyl]-2-methyl-phenyl]carbamoylamino]ethyl]-N′,N′-dimethyl-propanediamide] belongs 90.3%.
Turning to `CCC(=O)N1CC[C@H](NC(=O)Nc2cc(C(=O)N3CCC(c4ccc(C#N)cc4)CC3)ccc2C)C1` [Example 220, 3-[5-[4-(4-cyanophenyl)piperidine-1-carbonyl]-2-methyl-phenyl]-1-[(3S)-1-propanoylpyrrolidin-3-yl]urea], the inhibition at 100 µM stood at 96.7%.
With `CCOC(=O)C(C)NC(=O)Nc1cc(C(=O)N2CCC(c3ccc(C#N)cc3)CC2)ccc1C` (centres unmarked) [Example 385, Ethyl 2-[[5-[4-(4-cyanophenyl)piperidine-1-carbonyl]-2-methylphenyl]carbamoylamino]-propanoate], the inhibition at 100 µM came to 60.8%.
On to `C#CCNC(=O)Nc1ccc(C)c(C(=O)N2CCC(c3ccc(C#N)cc3)CC2)c1` [Example 418, 1-[3-[4-(4-cyanophenyl)piperidine-1-carbonyl]-4-methylphenyl]-3-prop-2-ynylurea], for which the inhibition at 100 µM turned out to be 67.3%.
As for `CCc1ccc(C(=O)N2CCC(c3ccc(C#N)cc3)CC2)cc1NC(=O)NCC1COCCO1` (racemic) [Example 259, (RS)-1-[5-[4-(4-cyanophenyl)piperidine-1-carbonyl]-2-ethyl-phenyl]-3-(1,4-dioxan-2-ylmethyl)urea], the inhibition at 100 µM came out at 102%.
Regarding `CC(=O)NCCN(C)C(=O)Nc1cc(C(=O)N2CCC(c3ccc(C#N)cc3)CC2)ccc1C` [Example 401, N-[2-[[5-[4-(4-cyanophenyl)piperidine-1-carbonyl]-2-methylphenyl]carbamoyl-methylamino]ethyl]acetamide], the inhibition at 100 µM came out at 65.7%.
Consider `C#CC(C)(C)NC(=O)Nc1cc(C(=O)N2CCC(c3ccc(C#N)cc3)CC2)ccc1C` [Example 384, 1-[5-[4-(4-cyanophenyl)piperidine-1-carbonyl]-2-methylphenyl]-3-(2-methylbut-3-yn-2-yl)urea], for which the inhibition at 100 µM amounted to 97.6%.
For the molecule `Cc1ccc(C(=O)N2CCC(c3ccc(C#N)cc3)CC2)cc1NC(=O)NC(C)(C)CN` [Example 260, 3-(1-amino-2-methyl-propan-2-yl)-1-[5-[4-(4-cyanophenyl)piperidine-1-carbonyl]-2-methyl-phenyl]urea], the inhibition at 100 µM turned out to be 77.4%.
For the molecule `Cc1ccc(C(=O)N2CCC(c3ccc(C#N)cc3)CC2)cc1NC(=O)NCCNS(=O)(=O)c1ccccc1` [Example 86, 3-[2-(benzenesulfonamido)ethyl]-1-[5-[4-(4-cyanophenyl)piperidine-1-carbonyl]-2-methyl-phenyl]urea], the inhibition at 100 µM is 94%.
In the case of `Cc1ccc(C(=O)N2CCC(c3ccc(C#N)cc3)CC2)cc1NC(=O)NC1CCN(Cc2ccccc2)CC1` [Example 41, 3-(1-benzyl-4-piperidyl)-1-[5-[4-(4-cyanophenyl)piperidine-1-carbonyl]-2-methyl-phenyl]urea], the inhibition at 100 µM came out at 94.4%.
With `Cc1ccc(NC(=O)NC2CC2)cc1C(=O)N1CCC(c2ccc(C#N)cc2)CC1` [Example 415, 1-[3-[4-(4-cyanophenyl)piperidine-1-carbonyl]-4-methylphenyl]-3-cyclopropylurea], the inhibition at 100 µM was 78.2%.

Still in this test, the particulars now being: FAS enzyme assay, IC50 from fitted sigmoid curves.
Turning to `Cc1ccc(C(=O)N2CCC(c3cccc(F)c3)CC2)cc1NC(=O)NC(C)C` [1-[5-[4-(3-fluorophenyl)piperidine-1-carbonyl]-2-methylphenyl]-3-propan-2-ylurea], the “IC50, inhibition of human Fatty Acid Synthase” value was “do not have IC50s in the range of about 0.001 μM to about 30 μM”.
For `CCOC(=O)[C@H](CO)NC(=O)Nc1cc(C(=O)N2CCC(c3ccc(C#N)cc3)CC2)ccc1C` [Ethyl (2S)-2-[[5-[4-(4-cyanophenyl)piperidine-1-carbonyl]-2-methylphenyl]carbamoylamino]-3-hydroxypropanoate], the “IC50, inhibition of human Fatty Acid Synthase” value is recorded as “do not have IC50s in the range of about 0.001 μM to about 30 μM”.
